Common to all, as to assay type: functional
Assay [1] concerns Escherichia coli. As to the kind of experiment: Antibacterial activity against Escherichia coli MTCC 443 after 16 hr by cup-plate method. The settings on record: MTCC 443, 16 h.
The test system of assay [2] is Pseudomonas aeruginosa. As to the kind of experiment: Antibacterial activity against Pseudomonas aeruginosa MTCC 424 at 100 ug/ml after 16 to 18 hr by cup-plate method. Conditions: read-out: IZ.
Assay [3] deals with Klebsiella pneumoniae. As to the kind of experiment: Antibacterial activity against Klebsiella pneumoniae MTCC 432 at 100 ug/ml after 16 to 18 hr by cup-plate method. The settings on record: read-out: IZ.
The subject of assay [4] is Staphylococcus aureus. Nature of the assay: Antibacterial activity against Staphylococcus aureus MTCC 096 at 100 ug/ml after 16 to 18 hr by cup-plate method. The settings on record: read-out: IZ.
Assay [5] deals with Staphylococcus aureus. As to the kind of experiment: Antibacterial activity against Staphylococcus aureus MTCC 096 after 16 hr by cup-plate method. Conditions: MTCC 096, 16 h.
For assay [6], the system named is Salmonella typhi. As to the kind of experiment: Antibacterial activity against Salmonella enterica subsp. enterica serovar Typhi MTCC 733 after 16 hr by cup-plate method. The settings on record: MTCC 733, 16 h.
Assay [7] concerns Pseudomonas aeruginosa. Nature of the assay: Antibacterial activity against Pseudomonas aeruginosa MTCC 424 after 16 hr by cup-plate method. Conditions: MTCC 424, 16 h.
Assay [8] has as its system Klebsiella pneumoniae. As to the kind of experiment: Antibacterial activity against Klebsiella pneumoniae MTCC 432 after 16 hr by cup-plate method. Conditions: MTCC 432, 16 h.
The subject of assay [9] is Salmonella typhi. Nature of the assay: Antibacterial activity against Salmonella enterica subsp. enterica serovar Typhi MTCC 733 at 100 ug/ml after 16 to 18 hr by cup-plate method. The settings on record: read-out: IZ.
In assay [10] the test system is Bacillus subtilis. Nature of the assay: Antibacterial activity against Bacillus subtilis MTCC 441 after 16 hr by cup-plate method. Conditions: MTCC 441, 16 h.
For assay [11], the system named is Staphylococcus epidermidis. Nature of the assay: Antibacterial activity against Staphylococcus epidermidis MTCC 435 after 16 hr by cup-plate method. Conditions: MTCC 435, 16 h.
Assay [12] relates to Staphylococcus epidermidis. As to the kind of experiment: Antibacterial activity against Staphylococcus epidermidis MTCC 435 at 100 ug/ml after 16 to 18 hr by cup-plate method. Conditions: read-out: IZ.
Assay [13] has as its system Bacillus subtilis. As to the kind of experiment: Antibacterial activity against Bacillus subtilis MTCC 441 at 100 ug/ml after 16 to 18 hr by cup-plate method. The settings on record: read-out: IZ.
The subject of assay [14] is Aspergillus fumigatus. As to the kind of experiment: Antifungal activity against Aspergillus fumigatus MTCC 343 at 100 ug/ml after 28 to 30 hr by cup-plate method. The settings on record: read-out: IZ.
Assay [15] deals with Aspergillus niger. As to the kind of experiment: Antifungal activity against Aspergillus niger MTCC 282 after 28 to 30 hr by cup-plate method.
Assay [16] relates to Candida albicans. As to the kind of experiment: Antifungal activity against Candida albicans MTCC 227 at 100 ug/ml after 28 to 30 hr by cup-plate method. Conditions: read-out: IZ.
Assay [17] relates to Aspergillus flavus. Nature of the assay: Antifungal activity against Aspergillus flavus MTCC 277 at 100 ug/ml after 28 to 30 hr by cup-plate method. Conditions: read-out: IZ.
For assay [18], the system named is Escherichia coli. Nature of the assay: Antibacterial activity against Escherichia coli MTCC 443 at 100 ug/ml after 16 to 18 hr by cup-plate method. Conditions: read-out: IZ.
Assay [19] concerns Candida albicans. As to the kind of experiment: Antifungal activity against Candida albicans MTCC 227 after 28 to 30 hr by cup-plate method.
Assay [20] deals with Aspergillus niger. Nature of the assay: Antifungal activity against Aspergillus niger MTCC 282 at 100 ug/ml after 28 to 30 hr by cup-plate method. Conditions: for zone of inhibition at 100 µg/mL: read-out: IZ.
Assay [21] deals with Aspergillus flavus. Nature of the assay: Antifungal activity against Aspergillus flavus MTCC 277 after 28 to 30 hr by cup-plate method.
For assay [22], the system named is Aspergillus fumigatus. Nature of the assay: Antifungal activity against Aspergillus fumigatus MTCC 343 after 28 to 30 hr by cup-plate method.

Structures are written as SMILES. Values after ≈ are worked out from the molar mass of the structure shown. Active and inactive are the calls of the source. No cut-off for these calls is given here.

The record followed here is ChEMBL document CHEMBL3046749, “Synthesis and antimicrobial activity of novel bis-azaphenothiazines” (2013).

For `O=C(O)c1cn(C2CC2)c2cc(N3CCNCC3)c(F)cc2c1=O` [CIPROFLOXACIN], the MIC in [1] was determined as 6.25 µg/mL (≈ 18.9 µM); in assay [5], 6.25 µg/mL (≈ 18.9 µM); in assay [6], 6.25 mM (≈ 2070 µg/mL); in assay [7] it was 6.25 µg/mL (≈ 18.9 µM); in assay [8] it was 6.25 µg/mL (≈ 18.9 µM); in assay [10] it was 6.25 µg/mL (≈ 18.9 µM). In assay [11], the MIC turned out to be 6.25 µg/mL (≈ 18.9 µM). The zone of inhibition at 100 µg/mL came to 18 mm in assay [2]; 17 mm in assay [3]; 19 mm in [4]; 19 mm in assay [9]; 16 mm in [12]; 18 mm in assay [13].
Regarding `Clc1ccc2c(c1)Sc1cccnc1N2CCCCCCN1c2ccc(Cl)cc2Sc2cccnc21`, the MIC was 50 µg/mL (≈ 90.7 µM) in assay [1]; greater than 50 µg/mL in assay [15]; 25 µg/mL (≈ 45.3 µM) in assay [5]; 25 µg/mL (≈ 45.3 µM) in assay [7]; 50 µg/mL (≈ 90.7 µM) in assay [8]; 12.5 µg/mL (≈ 22.7 µM) in [19]. Moreover, the minimal inhibitory concentration (MIC) in assay [10] is 25 µg/mL (≈ 45.3 µM); in assay [11] it was greater than 50 µg/mL; in assay [21] it was greater than 50 µg/mL; in [22], 12.5 µg/mL (≈ 22.7 µM). The zone of inhibition at 100 µg/mL came to 12 mm in [2]; 12 mm in [14]; 11 mm in assay [3]; 12 mm in assay [4]; 12 mm in [16]; 10 mm in assay [17]. Besides, the zone of inhibition at 100 µg/mL in assay [18] turned out to be 11 mm; in [9], 12 mm; in assay [12] it was 10 mm; in assay [13], 12 mm. Besides, the “inhibition zone (IZ)” value in assay [20] is “inactive”.
As to `Fc1ccc2c(c1)Sc1cccnc1N2CCCCN1c2ccc(F)cc2Sc2cccnc21`, the MIC in [1] was 25 µg/mL (≈ 51 µM); in assay [15] it was 50 µg/mL (≈ 102 µM); in [5], 25 µg/mL (≈ 51 µM); in [7], greater than 50 µg/mL; in assay [8], 50 µg/mL (≈ 102 µM); in assay [19], greater than 50 µg/mL. The minimum inhibitory concentration (MIC) was 12.5 µg/mL (≈ 25.5 µM) in assay [10], 12.5 µg/mL (≈ 25.5 µM) in assay [11], 25 µg/mL (≈ 51 µM) in assay [21] and greater than 50 µg/mL in assay [22]. For the same compound, the zone of inhibition at 100 µg/mL is 10 mm in [2]; 10 mm in assay [14]; 11 mm in assay [3]; 11 mm in assay [4]; 10 mm in [16]; 12 mm in assay [17]. Further, the zone of inhibition at 100 µg/mL worked out at 11 mm in assay [18]; 12 mm in assay [9]; 11 mm in assay [20]; 12 mm in assay [12]; 12 mm in assay [13].
As for `Brc1ccc2c(c1)Sc1cccnc1N2C/C=C/CN1c2ccc(Br)cc2Sc2cccnc21`, the MIC is 12.5 µg/mL (≈ 20.5 µM) in assay [1]; greater than 50 µg/mL in assay [15]; 25 µg/mL (≈ 41 µM) in [5]; greater than 50 µg/mL in [7]; 50 µg/mL (≈ 81.9 µM) in assay [8]; greater than 50 µg/mL in [19]. Moreover, the MIC was 25 µg/mL (≈ 41 µM) in assay [10], greater than 50 µg/mL in assay [11], greater than 50 µg/mL in assay [21] and 12.5 µg/mL (≈ 20.5 µM) in assay [22]. For the same compound, the zone of inhibition at 100 µg/mL was determined as 10 mm in assay [2]; 12 mm in [14]; 11 mm in assay [3]; 12 mm in [4]; 10 mm in [16]; 11 mm in assay [17]. For the same compound, the zone of inhibition at 100 µg/mL in [18] turned out to be 12 mm; in assay [9] it was 11 mm; in assay [12], 11 mm; in assay [13], 11 mm. The “inhibition zone (IZ)” value in [20] is “inactive”.
In the case of `Brc1ccc2c(c1)Sc1cccnc1N2CCCCN1c2ccc(Br)cc2Sc2cccnc21`, the MIC was 12.5 µg/mL (≈ 20.4 µM) in [1]; 50 µg/mL (≈ 81.6 µM) in [15]; 12.5 µg/mL (≈ 20.4 µM) in assay [5]; 12.5 µg/mL (≈ 20.4 µM) in [7]; 50 µg/mL (≈ 81.6 µM) in assay [8]; 50 µg/mL (≈ 81.6 µM) in assay [19]. Moreover, the MIC in assay [10] was 50 µg/mL (≈ 81.6 µM); in assay [11], 25 µg/mL (≈ 40.8 µM); in [21], greater than 50 µg/mL; in assay [22], 12.5 µg/mL (≈ 20.4 µM). Further, the zone of inhibition at 100 µg/mL stood at 12 mm in [2]; 12 mm in assay [14]; 11 mm in assay [3]; 12 mm in assay [4]; 11 mm in assay [16]; 10 mm in assay [17]. Also, the zone of inhibition at 100 µg/mL turned out to be 12 mm in assay [18]; 10 mm in assay [9]; 11 mm in assay [20]; 11 mm in assay [12]; 11 mm in assay [13].
In the case of `Clc1ccc2c(c1)Sc1cccnc1N2CCCCN1c2ccc(Cl)cc2Sc2cccnc21`, the MIC in assay [1] is 12.5 µg/mL (≈ 23.9 µM); in [15], greater than 50 µg/mL; in assay [5] it was 25 µg/mL (≈ 47.8 µM); in assay [7], 50 µg/mL (≈ 95.5 µM); in assay [8], greater than 50 µg/mL; in [19], 25 µg/mL (≈ 47.8 µM). For the same compound, the MIC in [10] turned out to be 50 µg/mL (≈ 95.5 µM); in [11], 6.25 µg/mL (≈ 11.9 µM); in assay [21] it was 12.5 µg/mL (≈ 23.9 µM); in assay [22], 50 µg/mL (≈ 95.5 µM). Moreover, the zone of inhibition at 100 µg/mL in [2] was determined as 11 mm; in assay [14] it was 11 mm; in assay [3], 11 mm; in [4], 12 mm; in [16] it was 11 mm; in assay [17] it was 12 mm. In addition, the zone of inhibition at 100 µg/mL is 12 mm in [18]; 12 mm in [9]; 10 mm in [20]; 12 mm in assay [12]; 11 mm in assay [13].
Take `CC(=O)Nc1ccc(Cl)cc1Sc1ncccc1[N+](=O)[O-]`: the MIC in assay [1] worked out at 12.5 µg/mL (≈ 38.6 µM); in assay [15], 6.25 µg/mL (≈ 19.3 µM); in [5], 25 µg/mL (≈ 77.2 µM); in assay [7], 6.25 µg/mL (≈ 19.3 µM); in assay [8], 6.25 µg/mL (≈ 19.3 µM); in assay [19], 6.25 µg/mL (≈ 19.3 µM). Further, the MIC was 25 µg/mL (≈ 77.2 µM) in assay [10], 6.25 µg/mL (≈ 19.3 µM) in [11], 25 µg/mL (≈ 77.2 µM) in [21] and 12.5 µg/mL (≈ 38.6 µM) in assay [22]. Further, the zone of inhibition at 100 µg/mL amounted to 14 mm in assay [2]; 12 mm in assay [14]; 13 mm in assay [3]; 12 mm in [4]; 14 mm in assay [16]; 12 mm in assay [17]. The zone of inhibition at 100 µg/mL in assay [18] turned out to be 12 mm; in [9] it was 12 mm; in assay [20], 14 mm; in assay [12], 13 mm; in assay [13] it was 12 mm.

As usually defined, the MIC is the lowest concentration found to suppress growth. A high value points to a need for much substance.
